Experimental data reported in patent publication US6667317B2, “Pharmaceutical combinations for the treatment of stroke and traumatic brain injury” (Pfizer Inc, priority 2000, dated 2003).

Assays:
α1 adrenergic receptor = experiment: Displacement of specific binding of [3H]prazosin from rat forebrain membranes; settings: 0.2 nM [3H]prazosin, affinity defined as IC50 for displacement of specific binding
Method: Compounds of the formula I have selectivity for NR^2B subunit-containing NMDA receptors over α1-adrengergic receptors. Affinity for the NR^2B subunit containing NMDA receptor is measured as the IC50 for displacement of specific binding of racemic [^3H] (+)-(1S, 2S)-1-(4-hydroxy-phenyl)-2-(4-hydroxy4-phenylpiperidino)-1-propanol from rat forebrain membranes (described above). Affinity for the α1-adrengergic receptor is defined as the IC50 for displacement of specific binding of racemic [^3H]prazosin from rat brain membranes, measured as described by Greengrass and Bremner (Binding Characteristics of [^3H]prazosin to Rat Brain α-Adrenergic Receptors, European Journal of Pharmacology, 55, 323-326, (1979)).
Forebrains of adult male Sprague Dawley rats are homogenized in 20 volumes of ice cold 50 mM Tris/HCl buffer (pH 7.7). The homogenate is centrifuged at 50,000×g for 10 minutes at 4° C. The pellet is resuspended and centrifuged under identical conditions and the final pellet is resuspended in 80 volumes of 50 mM Tris/HCl (pH 8.0) at 4° C.
For binding assays, compounds under study are added at various concentrations to 500 μg membrane protein in 1 ml of 50 mM Tris/HCl buffer, followed by [^3H]prazosin (Amersham, specific activity 33 Ci/mmol, 0.2 nM final concentration). Following incubation for 30 min at 25° C. in a shaking water bath, samples are filtered onto Whatman GFB glass fiber filters using a MB-48R Cell Harvester (Brandel Research and Development Laboratories, Gaithersburg Md.). Filters are washed three times for 10s with ice cold Tris HCl buffer and the radioactivity trapped on the filter quantified by liquid scintillation spectroscopy. Nonspecific binding is determined in parallel incubations containing 100 nM prazosin. Specific binding is defined as total binding minus nonspecific binding.

[1] = molecular target: T1, NR2B subunit containing NMDA receptor (Rattus norvegicus, UniProt P35439+Q00960); experiment: Displacement of specific binding of racemic [3H](+)-(1S,2S)-1-(4-hydroxy-phenyl)-2-(4-hydroxy-4-phenylpiperidino)-1-propanol ([3H]CP-101,606) from rat forebrain membranes; settings: ratio of the two binding IC50s; selectivity for NR2B NMDA receptor over α1 adrenergic receptor; greater than three is considered selective
T1 construct: (+)-(1S, 2S)-1-(4-hydroxy-phenyl)-2-(4-hydroxy4-phenylpiperidino)-1-propanol from rat forebrain membranes; from tissue; host or cells: forebrain membranes of adult male CD rats
Method: This affinity is assessed in a radioligand binding assay as described below.
The binding of racemic [^3H] […] Forebrains of adult male CD rats are homogenized in 0.32M sucrose at 4° C. The crude nuclear pellet is removed by centrifugation at 1,000×g for 10 minutes, and the supernatant centrifuged at 17,000×g for 25 minutes. The resulting pellet is resuspended in 5 mM Tris acetate pH 7.4 at 4° C. for 10 minutes to lyse cellular particles and again centrifuged at 17,000×g. The resulting pellet is washed twice in Tris acetate, resuspended at 10 mg protein/ml and stored at −20° C. until use.
For binding assays, membranes are thawed, homogenized, and diluted to 0.5 mg protein/ml with 50 mM Tris HCl, pH 7.4. Compounds under study are added at various concentrations followed by racemic [^3H] […] Following incubation for 20 min at 30° C. in a shaking water bath, samples are filtered onto Whatman GFB glass fiber filters using a MB-48R Cell Harvester (Brandel Research and Development Laboratories, Gaithersburg Md.). Filters are washed for 10 s with ice cold Tris HCl buffer and the radioactivity trapped on the filter quantified by liquid scintillation spectroscopy. […] Specific binding is defined as total binding minus nonspecific binding.
Affinity for the NR^2B subunit containing NMDA receptor is measured as the IC50 for displacement of specific binding of racemic [^3H] […] Affinity for the α1-adrengergic receptor is defined as the IC50 for displacement of specific binding of racemic [^3H]prazosin from rat brain membranes, measured as described by Greengrass and Bremner (Binding Characteristics of [^3H]prazosin to Rat Brain α-Adrenergic Receptors, European Journal of Pharmacology, 55, 323-326, (1979)).

T1 sequence (Q00960 27-1482, other chains not shown): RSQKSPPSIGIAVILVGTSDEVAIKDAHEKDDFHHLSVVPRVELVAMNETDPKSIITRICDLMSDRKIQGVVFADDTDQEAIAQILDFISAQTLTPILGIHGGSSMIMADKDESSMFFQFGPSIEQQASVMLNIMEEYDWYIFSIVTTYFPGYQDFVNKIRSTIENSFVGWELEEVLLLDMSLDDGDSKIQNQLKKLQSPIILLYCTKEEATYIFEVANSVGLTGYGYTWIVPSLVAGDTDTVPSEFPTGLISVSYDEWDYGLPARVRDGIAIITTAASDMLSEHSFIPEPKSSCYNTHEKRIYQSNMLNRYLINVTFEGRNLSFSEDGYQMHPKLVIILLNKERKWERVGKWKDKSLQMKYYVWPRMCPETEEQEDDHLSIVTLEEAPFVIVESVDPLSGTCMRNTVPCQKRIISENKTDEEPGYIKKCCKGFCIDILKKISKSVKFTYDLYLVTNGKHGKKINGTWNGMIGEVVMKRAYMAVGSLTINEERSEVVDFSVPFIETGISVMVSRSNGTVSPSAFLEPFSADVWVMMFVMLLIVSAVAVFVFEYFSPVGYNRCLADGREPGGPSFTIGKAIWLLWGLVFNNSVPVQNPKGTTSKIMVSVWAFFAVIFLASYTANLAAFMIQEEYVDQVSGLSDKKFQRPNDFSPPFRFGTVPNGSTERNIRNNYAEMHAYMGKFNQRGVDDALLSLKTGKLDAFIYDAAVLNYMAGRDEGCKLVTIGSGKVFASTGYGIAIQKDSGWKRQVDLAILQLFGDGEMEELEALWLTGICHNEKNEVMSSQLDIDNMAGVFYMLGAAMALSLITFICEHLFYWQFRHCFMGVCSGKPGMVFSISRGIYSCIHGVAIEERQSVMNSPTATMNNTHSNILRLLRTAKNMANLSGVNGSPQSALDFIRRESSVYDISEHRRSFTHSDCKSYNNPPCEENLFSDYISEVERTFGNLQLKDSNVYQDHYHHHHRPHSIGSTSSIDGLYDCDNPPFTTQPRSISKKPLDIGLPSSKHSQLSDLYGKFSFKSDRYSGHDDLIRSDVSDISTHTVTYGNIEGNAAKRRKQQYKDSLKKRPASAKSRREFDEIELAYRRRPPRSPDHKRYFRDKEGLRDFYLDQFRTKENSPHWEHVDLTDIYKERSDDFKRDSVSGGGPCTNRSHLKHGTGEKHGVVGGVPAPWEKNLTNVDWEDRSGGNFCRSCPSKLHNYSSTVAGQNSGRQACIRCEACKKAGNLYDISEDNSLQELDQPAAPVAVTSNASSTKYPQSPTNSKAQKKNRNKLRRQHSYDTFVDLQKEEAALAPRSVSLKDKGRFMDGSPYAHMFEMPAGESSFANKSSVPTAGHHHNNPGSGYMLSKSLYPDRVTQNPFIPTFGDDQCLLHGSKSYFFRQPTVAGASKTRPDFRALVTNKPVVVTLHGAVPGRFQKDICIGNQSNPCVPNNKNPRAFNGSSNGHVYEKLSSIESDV

melting point [°C]	Structure (SMILES)	IC50 (α1 adrenergic receptor) [µM]	Ratio [^3H]Prazosin/[^3H](+)-(1S, 2S)-1-(4-hydroxy-phenyl)-2-(4-hydroxy-4-phenylpiperidino)-1-propanol [1]
	OC(CN1CCC(Cc2ccc(F)cc2)CC1)c1ccc(Cl)cc1 (stereo not drawn) [Eliprodil, reference compound]	0.98 ± 0.22	2.2
	COc1cc([C@H](O)[C@H](C)N2CCC(O)(c3ccccc3)CC2)ccc1O [1S, 2S 1-(4-hydroxy-3-methoxyphenyl)-2-(4-hydroxy-4-phenyl-piperidin-1-yl)-propan-1-ol]	8.1	86
	C[C@@H]([C@@H](O)c1ccc(O)cc1)N1CCC(O)(c2ccccc2)CC1 [(1S,2S)-1-(4-hydroxyphenyl)-2-(4-hydroxy-4-phenylpiperidino)-1-propanol]	19.5	
	Cc1cc([C@@H](O)[C@@H](C)N2CCC(O)(c3ccc(F)cc3)CC2)ccc1O (relative stereo) [(1R*, 2R*)-1-(4-hydroxy-3-methylphenyl)-2-(4-(4-fluorophenyl)-4-hydroxypiperidin-1-yl)-propan-1-ol-mesylate]	10	
	Oc1ccc2c(c1)OC[C@@H](N1CCC(O)(c3ccc(F)cc3)CC1)[C@H]2O [(3R,4S)-3-[4-(4-fluorophenyl)-4-hydroxy-piperidin-1-yl]-chroman-4,7-diol]	> 10	≧555
159 to 160	Oc1ccc2c(c1)OCC(N1CCC(O)(c3ccc(F)cc3)CC1)[C@H]2O (stereo in doubt)		
